From patent US9035059B2, “Nitrogen-containing condensed heterocyclic compound” (TAISHO PHARMACEUTICAL CO., LTD., priority 2011, dated 2015)

target: MGAT2 (microsomal fraction of human small intestine) (Homo sapiens (Human), UniProt Q3SYC2); test: Test Example 2: Test of MGAT2 inhibitory action (microsomal fraction of human small intestine, 3H-labeled 2-monooleoyl glycerol); type: biochemical; settings: microsomal fraction of human small intestine 5 μg/ml; 4 μM oleoyl-CoA, 1.25 μM 2-monooleoyl glycerol, 0.125 μM 3H-labeled 2-monooleoyl glycerol; room temperature 30 min; read-out: Activity Value [nM] (IC50, concentration at which 50% of the products 3H-labeled dioleoyl glycerol and trioleoyl glycerol was inhibited)
Sequence (Q3SYC2 whole entry): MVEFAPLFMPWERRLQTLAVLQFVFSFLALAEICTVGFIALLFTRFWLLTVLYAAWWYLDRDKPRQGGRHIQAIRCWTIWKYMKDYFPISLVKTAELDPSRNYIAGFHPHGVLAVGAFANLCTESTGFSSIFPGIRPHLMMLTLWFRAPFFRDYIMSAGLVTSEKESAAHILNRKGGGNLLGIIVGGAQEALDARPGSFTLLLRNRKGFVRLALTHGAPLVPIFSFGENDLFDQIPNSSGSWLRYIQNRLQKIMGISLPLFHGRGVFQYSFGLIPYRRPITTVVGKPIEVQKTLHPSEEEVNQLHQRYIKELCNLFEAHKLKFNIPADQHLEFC
Description: An MGAT2 inhibition test for test compounds was conducted in accordance with a partially modified version of the method described in John F. Lockwood et al., Am. J. Physiol. Endocrinol. Metab., 2003, 285, E927.
A 10 mg/mL microsomal fraction of human small intestine (duodenum- and jejunum-derived fraction purchased from Becton Dickinson Japan) was used as an enzyme source.
The test was conducted using a flat-bottom 96-well plate (Corning).
A buffer solution with final concentrations of 5 mM magnesium chloride, 1.25 mg/ml bovine serum albumin and 100 mM Tris-HCl (pH=7.5) was prepared and the microsomal fraction of human small intestine was added thereto to give a final concentration of 5 μg/ml. […] Thereafter, final concentrations of 5 mM magnesium chloride, 1.25 mg/ml bovine serum albumin, 100 mM Tris-HCl (pH=7.5), 4 μM oleoyl-CoA, 1.25 μM 2-monooleoyl glycerol and 0.125 μM ^3H-labeled 2-monooleoyl glycerol (Muromachi Yakuhin Co., Ltd.) were added thereto to give a total volume of 100 μl. This mixture was reacted at room temperature for 30 min.
The reaction was stopped by adding an equal amount of isopropanol to the reaction mixture. The substrate contained in the reaction mixture (^3H-labeled 2-monooleoyl glycerol) and the reaction products (^3H-labeled dioleoyl glycerol and trioleoyl glycerol) were separated by adsorbing them onto an octadecylsilane resin (Wako gel 50C18) (Wako Pure Chemical Industries, Ltd.), removing the substrate by use of 80% isopropanol, and then eluting the reaction products with 100% isopropanol. The amounts of the reaction products were measured with MicroBeta (PerkinElmer Japan).

| Compound | IC50 |
| --- | --- |
| CC(C)(C)c1ncc(CCN2CCc3cc(S(=O)(=O)Nc4ccc(CCCC5CCCC5)cc4F)ccc3C2)s1 [Working Example 6-88] | 248 nM |
| Cc1nc(-c2ccccc2)sc1CN1CCc2cc(S(=O)(=O)Nc3ccc(CCCC4CCCC4)cc3F)ccc2C1 [Working Example 7-65] | 118 nM |
| Cc1ccc(-n2cc(CN3CCc4cc(S(=O)(=O)Nc5ccc(CCCC6CCCC6)cc5F)ccc4C3)cn2)cc1 [Working Example 7-76] | 16 nM |
| O=S(=O)(Nc1ccc(CCCC2CCCC2)cc1F)c1ccc2c(c1)CCN(Cc1cnn(C3CCC3)c1)C2 [Working Example 2-9] | 142 nM |
| C[C@@H](c1ccc(C(C)(C)C)nc1)N1CCc2cc(S(=O)(=O)Nc3ccc(CCCC4CCCC4)cc3F)ccc2C1 [24-2, 2-[(1S)-1-(6-tert-butylpyridin-3-yl)ethyl]-N-[4-(3-cyclopentylpropyl)-2-fluorophenyl]-1,2,3,4-tetrahydroisoquinoline-6-sulfonamide] | 29 nM |
| Cc1cc(CN2CCc3cc(S(=O)(=O)Nc4ccc(CCCC5CCCC5)cc4F)ccc3C2)c(C)n1-c1ccncc1 [Working Example 7-88] | 145 nM |
| CC(c1ccc(C(F)(F)F)nc1)N1CCc2cc(S(=O)(=O)Nc3ccc(CCCC4CCCC4)cc3F)ccc2C1 (single isomer, unassigned) [24-3] | 42 nM |
| CC(C)(C)c1ccc(CCN2CCc3cc(S(=O)(=O)Nc4ccc(OCCCS(=O)(=O)c5ccccc5)cc4F)ccc3C2)cc1 [Working Example 8-6] | 35 nM |
| CC(C)(C)c1ccc(C(C)(C)N2CCc3cc(S(=O)(=O)Nc4ccc(CCCC5CCCC5)cc4F)ccc3C2)cn1 [20-4] | 5 nM |
| Cc1nn(-c2ccccc2)c(C)c1CN1CCc2cc(S(=O)(=O)Nc3ccc(CCCC4CCCC4)cc3F)ccc2C1 [Working Example 7-71] | 57 nM |
| CC(c1cnc(C(C)(C)C)nc1)N1CCc2cc(S(=O)(=O)Nc3ccc(CCCC4CCCC4)cc3F)ccc2C1 (single isomer, unassigned) [24-7] | 57 nM |
| C[C@H](c1ccc(C(C)(C)C)nc1)N1CCc2cc(S(=O)(=O)Nc3ccc(CCCC4CCCC4)cc3F)ccc2C1 [24-1, 2-[(1R)-1-(6-tert-Butylpyridin-3-yl)ethyl]-N-[4-(3-cyclopentylpropyl)-2-fluorophenyl]-1,2,3,4-tetrahydroisoquinoline-6-sulfonamide] | 4 nM |
| O=S(=O)(Nc1ccc(CCCC2CCCC2)cc1F)c1ccc2c(c1)CCN(Cc1ccc(OCC(F)(F)F)nc1)C2 [Working Example 6-84] | 248 nM |
| CC(C)(C)n1cc(CCN2CCc3cc(S(=O)(=O)Nc4ccc(CCCC5CCCC5)cc4F)ccc3C2)cn1 [Working Example 7-91] | 140 nM |
| CC(C)(C)c1cc(CN2CCc3cc(S(=O)(=O)Nc4ccc(CCCC5CCCC5)cc4F)ccc3C2)ccn1 [Working Example 6-85] | 71 nM |
| CCn1cc(CN2CCc3cc(S(=O)(=O)Nc4ccc(CCCC5CCCC5)cc4F)ccc3C2)cn1 [Working Example 6-82] | 182 nM |
| CC(c1ccc(C(F)(F)F)nc1)N1CCc2cc(S(=O)(=O)Nc3ccc(CCCC4CCCC4)cc3F)ccc2C1 (single isomer, unassigned) [24-4] | 185 nM |
| O=S(=O)(Nc1ccc(CCCC2CCCC2)cc1F)c1ccc2c(c1)CCN(Cc1cnn(CC3CC3)c1)C2 [Working Example 2-7] | 234 nM |
